According to US20250073208A1, “IL-6 AND/OR IL-1BETA INHIBITOR” (AGC INC., priority 2022, published 2025):

Tests used:
IL-1β mRNA = test: Quantitative RT-PCR analysis of IL-1β mRNA in whole lung of monocrotaline-induced pulmonary hypertension rats; assay type: in vivo, rat (male Sprague Dawley); details: 2 mg/kg/day, 3 weeks, FIG. 7 right, result in words
IL-6 mRNA = test: Quantitative RT-PCR analysis of IL-6 mRNA in whole lung of monocrotaline-induced pulmonary hypertension rats; assay type: in vivo, rat (male Sprague Dawley); details: 2 mg/kg/day, 3 weeks, FIG. 7 left
[1] = test system: rats with monocrotaline-induced pulmonary hypertension; test: Monocrotaline (MCT)-induced pulmonary hypertension rat model: haemodynamics and right ventricular hypertrophy; assay type: in vivo; details: 3 weeks
Description: According to the method described in Abe K, Circ Res, 94: 385-393, 2004, a monocrotaline (MCT)-induced pulmonary hypertension rat model was prepared. Monocrotaline (manufactured by Sigma Ltd. Aldrich) was subcutaneously injected once at a dose of 60 mg/kg to 5- to 6-week-old (body weight 150-200 g) male Sprague Dawley rats (SD rat). The compound of the present invention (KAG-308) was orally administered using a gavage needle at a dose of 1 mg/kg (2 mg/kg/day) twice daily from the day of subcutaneous injection of monocrotaline until the day before measurement (“MCT+KAG-308” in FIG. 1). The same amount of solvent (water for injection) was administered for the same period to the pulmonary hypertension rat model not treated with KAG-308 (“MCT” in FIG. 1). The normal control group, which was not administered monocrotaline and KAG-308, was of the same age (“Normal” in FIG. 1). Three weeks after monocrotaline injection, right ventricular systolic pressure, systemic arterial pressure, heart rate number, and right-to-left ventricular weight ratio (right ventricular hypertrophy) were measured. Under isoflurane inhalation anesthesia, right ventricular systolic pressure was measured by the right heart catheterization method. Using a conductance catheter, systemic arterial pressure and heart rate were measured from the carotid artery. After the measurement, the rats were euthanized with a lethal dose of intravenous pentobarbital, and the hearts were excised. The weight of the left ventricle (LV) including the ventricular septum (Sep) relative to the right ventricle (RV) was measured, and the ratio was used as an index of right ventricular hypertrophy.

[2] = test system: rats with monocrotaline-induced pulmonary hypertension; test: Pulmonary histopathological analysis in the monocrotaline-induced pulmonary hypertension rat model; assay type: in vivo, rat (male Sprague Dawley); details: 2 mg/kg/day, 3 weeks
Description: According to the method described in Abe K, Circ Res, 94: 385-393, 2004, a monocrotaline (MCT)-induced pulmonary hypertension rat model was prepared. Monocrotaline (manufactured by Sigma Ltd. Aldrich) was subcutaneously injected once at a dose of 60 mg/kg to 5- to 6-week-old (body weight 150-200 g) male Sprague Dawley rats (SD rat). The compound of the present invention (KAG-308) was orally administered using a gavage needle at a dose of 1 mg/kg (2 mg/kg/day) twice daily from the day of subcutaneous injection of monocrotaline until the day before measurement (“MCT+KAG-308” in FIG. 1). The same amount of solvent (water for injection) was administered for the same period to the pulmonary hypertension rat model not treated with KAG-308 (“MCT” in FIG. 1). The normal control group, which was not administered monocrotaline and KAG-308, was of the same age (“Normal” in FIG. 1). Three weeks after monocrotaline injection, right ventricular systolic pressure, systemic arterial pressure, heart rate number, and right-to-left ventricular weight ratio (right ventricular hypertrophy) were measured. Under isoflurane inhalation anesthesia, right ventricular systolic pressure was measured by the right heart catheterization method. Using a conductance catheter, systemic arterial pressure and heart rate were measured from the carotid artery. After the measurement, the rats were euthanized with a lethal dose of intravenous pentobarbital, and the hearts were excised. The weight of the left ventricle (LV) including the ventricular septum (Sep) relative to the right ventricle (RV) was measured, and the ratio was used as an index of right ventricular hypertrophy. […]
Pulmonary arteries with an outer diameter of 50 to 100 μm were analyzed, and the mean medial wall thickness was measured in a blind manner (mean medial wall thickness=(outer diameter−inner diameter)/outer diameter).
Muscularization of small pulmonary arteries with an outer diameter of 50 μm or less was analyzed by immunostaining with anti-α-SMA (smooth muscular actin) antibody. According to the percentage of smooth muscle in the total circumference of the small pulmonary artery, they were defined as Non muscular (<25%), Partially muscular (25-75%), and Totally muscular (>75%), and at least 70 small pulmonary arteries of each specimen were evaluated in a blinded method.
Macrophages were measured by immunostaining using anti-CD68 antibody. The device used was a laser scanning microscope FV1200 IX83 (OLYMPUS), and observation was performed at a magnification of 400×, and CD68-positive cells were counted in 15 randomly selected fields mainly of small blood vessels.

Question: Which “increase in mRNA expression level of IL-1β” value (IL-1β mRNA) does the source give for `Cc1cccc([C@@H](C)[C@H](O)/C=C/[C@@H]2[C@@H]3[C@H](C[C@H]2O)O/C(=C\CCCc2nnn[nH]2)C3(F)F)c1` [KAG-308, 4-[(Z)-(1S,5R,6R,7R)-6-[(1E,3R,4R)-3-hydroxy-4-(m-tolyl)-1-pentenyl]-7-hydroxy-2-oxa-4,4-difluoro-bicyclo[3.3.0]octan-3-ylidene]-1-(tetrazol-5-yl)butane] here?
Answer: The value was “significantly suppressed”.

Question: And the “suppression of the increase in mRNA expression level of IL-6” value (IL-6 mRNA)?
Answer: Its value is 89%.

Question: What about the “increase in mRNA expression level of IL-6” value (IL-6 mRNA; result in words) of the same compound?
Answer: Its value is “significantly suppressed”.

Question: What about the “increase in right ventricular systolic pressure (RVSP)” value ([1]; 1 mg/kg orally twice daily (2 mg/kg/day), FIG. 2 left) of the same compound?
Answer: Its value is “significantly suppressed”.

Question: What about the “increase in weight ratio RV/LV+Sep (right ventricular hypertrophy)” value ([1]; 1 mg/kg orally twice daily (2 mg/kg/day), FIG. 2 right) of the same compound?
Answer: The value was “significantly suppressed”.

Question: What about the “left ventricular systolic pressure” value ([1]; 2 mg/kg/day orally, FIG. 3 left) of the same compound?
Answer: The value was “without affecting”.

Question: What about the heart rate ([1]; 2 mg/kg/day orally, FIG. 3 right) of the same compound?
Answer: The heart rate was “without affecting”.

Question: And the “increase in infiltration of inflammatory CD68-positive macrophages” value ([2]; lung, anti-CD68 immunostaining, 15 fields at 400×, FIG. 6)?
Answer: Its value is “significantly suppressed”.

Question: What about the “increase in average medial wall thickness of pulmonary artery” value ([2]; pulmonary arteries of outer diameter 50 to 100 μm, EVG staining, FIG. 4) of the same compound?
Answer: Its value is “significantly suppressed”.

Question: What about the “non-muscular percentage of small pulmonary arteries” value ([2]; small pulmonary arteries of outer diameter 50 μm or less, anti-α-SMA immunostaining, non muscular <25%, FIG. 5) of the same compound?
Answer: Its value is “increased”.

Question: What about the “totally muscular percentage of small pulmonary arteries” value ([2]; small pulmonary arteries of outer diameter 50 μm or less, anti-α-SMA immunostaining, totally muscular >75%, FIG. 5) of the same compound?
Answer: Its value is “decreased”.
